Assay results published in the supplement of paper PMC11451515.

Key:
Assay in all cases: AUC of viability dose-response curve (% viability x log10 dose units); higher = less sensitive
Settings in all cases: 48 h
NOMO1 = tested on: NOMO1
Outline: (§1)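 Viability of medium-adapted leukemia cells was measured by CellTiter-Glo One luminescence after 48 h at 37°C with library compounds in DMSO. Doses were 11 threefold steps from 47 μM to 0.79 nM, in 1536-well plates at 500 or 1000 cells/well. Signals were normalised per plate to DMSO and cell-free wells and fitted with a four-parameter log-logistic model on log10 dose. Area under the curve was integrated by trapezoidal rule, with curves exceeding full viability scaled and failed quality-control curves removed.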

P12-Ichikawa = tested on: P12-Ichikawa
Outline: as §1

SEM cells = tested on: SEM cells
Outline: as §1

[1] = RPMI 5 mM glucose + 10% dialyzed FBS

Row | Compound | AUC of viability dose-response curve (NOMO1; HPLM + 10% dialyzed FBS) | AUC of viability dose-response curve (NOMO1; RPMI 5 mM glucose + 10% FBS) | AUC of viability dose-response curve (NOMO1; [1]) | AUC of viability dose-response curve (P12-Ichikawa; HPLM + 10% dialyzed FBS) | AUC of viability dose-response curve (P12-Ichikawa; RPMI 5 mM glucose + 10% FBS) | AUC of viability dose-response curve (P12-Ichikawa; [1]) | AUC of viability dose-response curve (SEM cells; HPLM + 10% dialyzed FBS) | AUC of viability dose-response curve (SEM cells; RPMI 5 mM glucose + 10% FBS) | AUC of viability dose-response curve (SEM cells; [1])
1 | NC\1=N\C(=O)N(\C=C1F)[C@H]2C[C@H](O)[C@@H](CO)O2 | 280 | 360 | 239 | 285 | 279 | 264 | 270 | 359 | 201
2 | COC(=O)C/1=C(C)/N/C(=C(\C1C2=CC(=CC=C2)[N+]([O-])=O)C(=O)OCCCN3CCC(CC3)(C4=CC=CC=C4)C5=CC=CC=C5)C (centres undefined) | 439 | 441 | 464 | 453 | 429 | 445 | 458 | 439 | 441
3 | CCC(C1CCC(C)C(O1)C(C)C(O)C(C)C(=O)C(CC)C2OC\3(O[C@]4(CC[C@@](C)(O4)C5CC[C@@](O)(CC)C(C)O5)C(O)\C=C3)C(C)CC2C)C([O-])=O (some centres undefined) |  |  |  | 426 | 403 | 382 |  |  | 
4 | N#Cc1ccc(NC(=O)Nc2ccccc2Br)c2nn[nH]c12 | 477 | 463 | 456 | 475 | 457 | 465 | 448 | 473 | 449
5 | CN(C)CCc1c[nH]c2ccc(C[S+](=O)([O-])N3CCCC3)cc12 | 459 | 468 | 460 | 471 | 466 | 466 | 453 | 427 | 433
6 | O=C1CCCC(=O)C1C(=O)c1ccc(C(F)(F)F)cc1[N+](=O)[O-] | 403 | 471 | 463 | 465 | 450 | 468 | 474 | 464 | 466
7 | Clc1ccccc1C(c1ccccc1)(c1ccccc1)n1ccnc1 | 451 | 443 | 468 | 448 | 426 | 448 | 425 | 416 | 412
8 | Oc1ccc(-c2ccc(-c3cc(Nc4cccc(CNC5CC5)c4)[nH]n3)cc2)c(O)c1 | 402 | 396 | 409 | 403 | 372 | 404 | 321 | 376 | 374
9 | CC(C)(C)OC(=O)Nc1ccc(-c2cc(C(=O)NCCCCCCC(=O)NO)no2)cc1 | 379 | 346 | 361 | 333 | 297 | 276 | 343 | 333 | 288
10 | Oc1c(Cl)cc(Cl)c2cccnc12 | 446 | 438 | 462 | 465 | 447 | 449 | 435 | 439 | 433
11 | COC(=O)[C@H](c1ccccc1Cl)N1CCc2sccc2C1 | 357 | 328 | 343 | 414 | 416 | 427 | 449 | 440 | 432
12 | CCN(CC)CCCC(C)Nc1nc(C)cc(Nc2ccc3nc(C)cc(N)c3c2)n1 (centres undefined) | 464 | 470 | 468 | 461 | 464 | 469 |  |  | 
13 | CN(C)[C@@H](CCOc1cccc2ccccc12)c1ccccc1 | 433 | 461 | 456 | 455 | 433 | 467 | 400 | 444 | 469
14 | COc1cc2ncnc(Nc3cccc(Cl)c3)c2cc1OC | 286 | 370 | 343 | 309 | 315 | 305 | 287 | 242 | 274
15 | CN1CCN(CCCN2c3ccccc3Sc3ccc(Cl)cc32)CC1.O=C(O)/C=C\C(=O)O.O=C(O)/C=C\C(=O)O | 362 | 390 | 386 | 429 | 421 | 423 | 471 | 466 | 465
16 | O=C(NCC1CCOCC1)c1cnc(Nc2ccc(Cl)cc2Cl)nc1C(F)(F)F | 439 | 456 | 456 | 450 | 472 | 465 | 425 | 461 | 448
17 | C[C@H]1Oc2cc(cnc2N)-c2c(nn(C)c2C#N)CN(C)C(=O)c2ccc(F)cc21 | 459 | 467 | 463 | 462 | 463 | 461 | 446 | 457 | 473
18 | C[C@@H](N)C1CC[C@@H](CC1)C(=O)NC2=CC=NC=C2 (some centres undefined) | 472 | 462 | 466 | 469 | 470 | 470 | 438 | 452 | 464
19 | CS[C@H]1SC[C@@H]2C(=O)N(C)[C@H](C(C)C)C(=O)OC[C@H](NC(=O)c3cnc4ccccc4n3)C(=O)N[C@H](C)C(=O)N(C)[C@H]1C(=O)N(C)[C@H](C(C)C)C(=O)OC[C@H](NC(=O)c1cnc3ccccc3n1)C(=O)N[C@H](C)C(=O)N2C | 140 | 142 | 141 | 176 | 148 | 140 |  |  | 
20 | C[C@H](Cc1ccc(O)c(O)c1)[C@@H](C)Cc1ccc(O)c(O)c1 |  |  |  | 443 | 432 | 436 | 394 | 453 | 453
21 | Oc1ccc([C@@H]2Oc3ccc(O)cc3[C@@H]3CCC[C@@H]32)cc1 | 412 | 423 | 406 | 394 | 372 | 349 |  |  | 
22 | NC[C@H]1O[C@H](O[C@H]2[C@H](O)[C@@H](O[C@H]3O[C@H](CO)[C@@H](O)[C@H](N)[C@H]3O)[C@H](N)C[C@@H]2N)[C@H](N)C[C@@H]1O | 467 | 467 | 452 | 459 | 455 | 413 | 455 | 470 | 469
23 | CCOC(=O)[C@@H](N)CCC(=O)N[C@@H](CSCc1ccccc1)C(=O)N[C@@H](C(=O)OCC)c1ccccc1 | 468 | 466 | 474 | 467 | 458 | 458 | 466 | 473 | 461
